In patent publication US20100267561A1, “HERBICIDAL PYRIDAZINONE DERIVATIVES” (priority 2007, published 2010):

Key:
Assay type in all cases: in vivo
[1] = tested on: pigweed (Amaranthus retroflexus); assay: Test A pre-/postemergence plant response
Method in brief: (§1)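 Greenhouse pot test: loam–sand soil; pre- and postemergence sprays applied same day; post plants 2–10 cm, 1–2 leaves. Readout ~10 d, visual % injury vs untreated (0 = none, 100 = complete control).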

[2] = tested on: giant foxtail (Setaria faberi); assay: Test A pre-/postemergence plant response
Method in brief: as §1

corn (Zea mays) = assay: Test A pre-/postemergence plant response
Method in brief: as §1

[3] = tested on: velvetleaf (Abutilon theophrasti); assay: Test A pre-/postemergence plant response
Method in brief: as §1

[4] = tested on: large crabgrass (Digitaria sanguinalis); assay: Test A pre-/postemergence plant response
Method in brief: as §1

[5] = tested on: barnyardgrass (Echinochloa crus-galli); assay: Test A pre-/postemergence plant response
Method in brief: as §1

[6] = tested on: morningglory (Ipomoea coccinea); assay: Test A pre-/postemergence plant response
Method in brief: as §1

[7] = tested on: umbrella sedge (Cyperus difformis); assay: Test B flooded paddy test plant response
Method in brief: (§2)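 2-leaf plants; pots flooded 3 cm above soil; compound added to paddy water; depth maintained. Greenhouse 13–15 d. Visual rating vs controls, 0 (no effect) to 100 (complete control); dash = no result.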

rice (Oryza sativa) = assay: Test B flooded paddy test plant response
Method in brief: as §2

[8] = tested on: ducksalad (Heteranthera limosa); assay: Test B flooded paddy test plant response
Method in brief: as §2

[9] = tested on: barnyardgrass (Echinochloa crus-galli); assay: Test B flooded paddy test plant response
Method in brief: as §2

[10] = Postemergence, 1000 g ai/ha, 0 to 100 scale, 0 no effect, 100 complete control
[11] = Preemergence, 1000 g ai/ha, 0 to 100 scale (0 no effect, 100 complete control)
[12] = Flood (flooded paddy test), 62 g ai/ha, scale 0 to 100, 0 no effect, 100 complete control
[13] = Flood (flooded paddy test), 125 g ai/ha, scale 0 to 100, 0 no effect, 100 complete control
[14] = Flood, 31 g ai/ha, scale 0 to 100
[15] = Flood (flooded paddy test), 250 g ai/ha, scale 0 to 100, 0 no effect, 100 complete control
[16] = Postemergence, 31 g ai/ha, 0 to 100 scale (0 no effect, 100 complete control)
[17] = Postemergence, 125 g ai/ha, 0 to 100 scale, 0 no effect, 100 complete control
[18] = Preemergence, 31 g ai/ha, 0 to 100 scale, 0 is no effect, 100 is complete control
[19] = Preemergence, 125 g ai/ha, 0 to 100 scale (0 no effect, 100 complete control)
[20] = Postemergence, 500 g ai/ha, 0 to 100 scale, 0 no effect, 100 complete control
[21] = Preemergence, 500 g ai/ha, 0 to 100 scale (0 no effect, 100 complete control)

## Cc1cc(-c2ccc(C(F)(F)F)cc2)nn1-c1c(OC(=O)C(C)(C)C)cnn(C)c1=O [Compound 2]
[1]; [10]
  Plant response rating, Pigweed: 0
[1]; [11]
  Plant response rating, Pigweed: 0
[2]; [10]
  Plant response rating, Foxtail, Giant: 90
[2]; [11]
  Plant response rating, Foxtail, Giant: 100
Corn (Zea mays); [10]
  Plant response rating, Corn: 90
Corn (Zea mays); [11]
  Plant response rating, Corn: 80
[3]; [10]
  Plant response rating, Velvetleaf: 40
[3]; [11]
  Plant response rating, Velvetleaf: 60
[4]; [10]
  Plant response rating, Crabgrass, Large: 80
[4]; [11]
  Plant response rating, Crabgrass, Large: 100
[5]; [10]
  Plant response rating, Barnyardgrass: 100
[5]; [11]
  Plant response rating, Barnyardgrass: 100
[6]; [10]
  Plant response rating, Morningglory: 0
[6]; [11]
  Plant response rating, Morningglory: 0
[7]; [12]
  Plant response rating, Sedge, Umbrella: 50
[7]; [13]
  Plant response rating, Sedge, Umbrella: 60
[7]; [14]
  Plant response rating, Sedge, Umbrella: 0
Rice (Oryza sativa); [12]
  Plant response rating, Rice: 15
Rice (Oryza sativa); [13]
  Plant response rating, Rice: 15
Rice (Oryza sativa); [15]
  Plant response rating, Rice: 45
Rice (Oryza sativa); [14]
  Plant response rating, Rice: 0
[8]; [12]
  Plant response rating, Ducksalad: 0
[8]; [13]
  Plant response rating, Ducksalad: 0
[8]; [15]
  Plant response rating, Ducksalad: 40
[8]; [14]
  Plant response rating, Ducksalad: 0
[9]; [12]
  Plant response rating, Barnyardgrass: 0
[9]; [13]
  Plant response rating, Barnyardgrass: 20
[9]; [15]
  Plant response rating, Barnyardgrass: 45
[9]; [14]
  Plant response rating, Barnyardgrass: 0

## C#CCOC(=O)Oc1cnn(C)c(=O)c1-n1nc(-c2ccc(Cl)cc2)cc1C [Compound 58]
[1]; [16]
  Plant response rating, Pigweed: 0
[1]; [17]
  Plant response rating, Pigweed: 0
[1]; [18]
  Plant response rating, Pigweed: 0
[1]; [19]
  Plant response rating, Pigweed: 0
[2]; [16]
  Plant response rating, Foxtail, Giant: 20
[2]; [17]
  Plant response rating, Foxtail, Giant: 90
[2]; [18]
  Plant response rating, Foxtail, Giant: 90
[2]; [19]
  Plant response rating, Foxtail, Giant: 100
Corn (Zea mays); [16]
  Plant response rating, Corn: 0
Corn (Zea mays); [17]
  Plant response rating, Corn: 60
Corn (Zea mays); [18]
  Plant response rating, Corn: 0
Corn (Zea mays); [19]
  Plant response rating, Corn: 20
[3]; [16]
  Plant response rating, Velvetleaf: 0
[3]; [17]
  Plant response rating, Velvetleaf: 0
[3]; [18]
  Plant response rating, Velvetleaf: 0
[3]; [19]
  Plant response rating, Velvetleaf: 0
[4]; [16]
  Plant response rating, Crabgrass, Large: 0
[4]; [17]
  Plant response rating, Crabgrass, Large: 70
[4]; [18]
  Plant response rating, Crabgrass, Large: 60
[4]; [19]
  Plant response rating, Crabgrass, Large: 90
[5]; [16]
  Plant response rating, Barnyardgrass: 0
[5]; [17]
  Plant response rating, Barnyardgrass: 80
[5]; [18]
  Plant response rating, Barnyardgrass: 50
[5]; [19]
  Plant response rating, Barnyardgrass: 100
[6]; [16]
  Plant response rating, Morningglory: 0
[6]; [17]
  Plant response rating, Morningglory: 0
[6]; [18]
  Plant response rating, Morningglory: 0
[6]; [19]
  Plant response rating, Morningglory: 0
[7]; [12]
  Plant response rating, Sedge, Umbrella: 0
[7]; [15]
  Plant response rating, Sedge, Umbrella: 0
Rice (Oryza sativa); [12]
  Plant response rating, Rice: 0
Rice (Oryza sativa); [15]
  Plant response rating, Rice: 60
[8]; [12]
  Plant response rating, Ducksalad: 0
[8]; [15]
  Plant response rating, Ducksalad: 45
[9]; [12]
  Plant response rating, Barnyardgrass: 30
[9]; [15]
  Plant response rating, Barnyardgrass: 70

## Cn1ncc(O)c(-c2nn(-c3ccc(Cl)cc3)cc2Br)c1=O [Compound 31]
[1]; [17]
  Plant response rating, Pigweed: 0
[1]; [20]
  Plant response rating, Pigweed: 0
[1]; [19]
  Plant response rating, Pigweed: 0
[1]; [21]
  Plant response rating, Pigweed: 20
[2]; [17]
  Plant response rating, Foxtail, Giant: 90
[2]; [20]
  Plant response rating, Foxtail, Giant: 90
[2]; [19]
  Plant response rating, Foxtail, Giant: 100
[2]; [21]
  Plant response rating, Foxtail, Giant: 100
Corn (Zea mays); [17]
  Plant response rating, Corn: 10
Corn (Zea mays); [20]
  Plant response rating, Corn: 70
Corn (Zea mays); [19]
  Plant response rating, Corn: 50
Corn (Zea mays); [21]
  Plant response rating, Corn: 70
[3]; [17]
  Plant response rating, Velvetleaf: 0
[3]; [20]
  Plant response rating, Velvetleaf: 0
[3]; [19]
  Plant response rating, Velvetleaf: 0
[3]; [21]
  Plant response rating, Velvetleaf: 0
[4]; [17]
  Plant response rating, Crabgrass, Large: 60
[4]; [20]
  Plant response rating, Crabgrass, Large: 90
[4]; [19]
  Plant response rating, Crabgrass, Large: 100
[4]; [21]
  Plant response rating, Crabgrass, Large: 100
[5]; [17]
  Plant response rating, Barnyardgrass: 60
[5]; [20]
  Plant response rating, Barnyardgrass: 90
[5]; [19]
  Plant response rating, Barnyardgrass: 100
[5]; [21]
  Plant response rating, Barnyardgrass: 100
[6]; [17]
  Plant response rating, Morningglory: 0
[6]; [20]
  Plant response rating, Morningglory: 0
[6]; [19]
  Plant response rating, Morningglory: 0
[6]; [21]
  Plant response rating, Morningglory: 0
[7]; [12]
  Plant response rating, Sedge, Umbrella: 0
[7]; [13]
  Plant response rating, Sedge, Umbrella: 0
[7]; [15]
  Plant response rating, Sedge, Umbrella: 0
[7]; [14]
  Plant response rating, Sedge, Umbrella: 0
Rice (Oryza sativa); [12]
  Plant response rating, Rice: 0
Rice (Oryza sativa); [13]
  Plant response rating, Rice: 0
Rice (Oryza sativa); [15]
  Plant response rating, Rice: 0
Rice (Oryza sativa); [14]
  Plant response rating, Rice: 0
[8]; [12]
  Plant response rating, Ducksalad: 0
[8]; [13]
  Plant response rating, Ducksalad: 0
[8]; [15]
  Plant response rating, Ducksalad: 0
[8]; [14]
  Plant response rating, Ducksalad: 0
[9]; [12]
  Plant response rating, Barnyardgrass: 0
[9]; [13]
  Plant response rating, Barnyardgrass: 0
[9]; [15]
  Plant response rating, Barnyardgrass: 0
[9]; [14]
  Plant response rating, Barnyardgrass: 0
